Laboratory results as given in PubChem BioAssay (NCI).
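Cells were grown in 96-well plates and exposed to each compound for 48 hours at five concentrations; endpoints were interpolated linearly between bracketing concentrations, or set to the highest concentration if not reached. GI50 is the concentration that inhibits growth by half. TGI: total growth inhibition.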

Experiments:
Assay in all cases: growth of human tumour cells (NCI), 48 h
OVCAR-3 ovarian = tested on: OVCAR-3 ovarian
MALME-3M melanoma = tested on: MALME-3M melanoma
MOLT-4 leukemia = tested on: MOLT-4 leukemia
OVCAR-5 ovarian = tested on: OVCAR-5 ovarian
SF-268 CNS = tested on: SF-268 CNS
HCC-2998 colon = tested on: HCC-2998 colon
K-562 leukemia = tested on: K-562 leukemia
MDA-MB-435 = tested on: MDA-MB-435
HS 578T breast = tested on: HS 578T breast
RPMI-8226 leukemia = tested on: RPMI-8226 leukemia

| SMILES | TGI (OVCAR-3 ovarian) | TGI (MALME-3M melanoma) | TGI (MOLT-4 leukemia) | TGI (OVCAR-5 ovarian) | TGI (SF-268 CNS) | TGI (HCC-2998 colon) | TGI (K-562 leukemia) | TGI (MDA-MB-435) | TGI (HS 578T breast) | TGI (RPMI-8226 leukemia) | GI50 (OVCAR-3 ovarian) | GI50 (MOLT-4 leukemia) | GI50 (RPMI-8226 leukemia) | GI50 (OVCAR-5 ovarian) | GI50 (SF-268 CNS) | GI50 (HCC-2998 colon) | GI50 (K-562 leukemia) | GI50 (MDA-MB-435) | GI50 (HS 578T breast) | GI50 (MALME-3M melanoma) |
| --- | --- | --- | --- | --- | --- | --- | --- | --- | --- | --- | --- | --- | --- | --- | --- | --- | --- | --- | --- | --- |
| COC(=O)C1(CCCCCBr)CCCCCCCCCCC1=O (centres undefined) | > 100 µM | 47.6 µM | 35.6 µM | > 100 µM | > 100 µM | > 100 µM | > 100 µM | 87.5 µM | > 100 µM |  |  |  |  |  |  |  |  |  |  |  |
| CO[C@H]1SC[C@H](OC(C)=O)[C@H](OC(C)=O)[C@H]1OC(C)=O | > 100 µM | > 100 µM | > 100 µM |  | > 100 µM | > 100 µM | > 100 µM | > 100 µM | > 100 µM | > 100 µM |  |  |  |  |  |  |  |  |  |  |
| COc1ccc(Nc2nc(N)c(C(=O)c3c[nH]c4ccccc34)s2)cc1 | 4.14 µM | 21.6 µM | 20.9 µM | > 80.5 µM | > 100 µM |  |  |  |  |  |  |  |  |  |  |  |  |  |  |  |
| COc1cc(-c2n/c(=C\c3c(O)[nH]c4ccc(Cl)cc34)cc3c2=Nc2ccccc2-3)ccc1F | 4.06 µM |  | 3.32 µM | 13.3 µM | 4.65 µM | 8.81 µM | 5.98 µM | 4.65 µM | 5.92 µM | > 100 µM | 1.98 µM | 1.08 µM | 6.75 µM | 3.9 µM | 2.05 µM | 2.94 µM | 2.22 µM | 2.16 µM | 2.07 µM |  |
| COc1ccc2nc(/C(N)=C\C#N)ccc2c1 | > 100 µM | > 100 µM | 88.5 µM | > 100 µM | > 100 µM |  | > 100 µM | > 100 µM | > 100 µM | > 100 µM |  |  |  |  |  |  |  |  |  |  |
| O=C(c1ccncc1)n1nc(-c2ccccc2)c(N=Nc2ccccc2[N+](=O)[O-])c1-c1ccccc1 | > 100 µM | > 100 µM | > 100 µM |  | > 100 µM | > 100 µM | > 100 µM |  |  | > 100 µM |  |  |  |  |  |  |  |  |  |  |
| CCC1=C(C(C)=O)[C@@H]2CCCCC[C@@H](C(=O)OC)C2C1=O (some centres undefined) |  | > 100 µM | > 100 µM | > 100 µM | > 100 µM | > 100 µM | > 100 µM |  |  | > 100 µM |  |  |  |  |  |  |  |  |  |  |
| CN(C)/N=C(/c1nc2ccc(Cl)cc2[nH]c1=O)C(O)c1ccc(C(O)/C(=N\N(C)C)c2nc3ccc(Cl)cc3[nH]c2=O)cc1 (centres undefined) | > 100 µM | > 100 µM | > 100 µM | > 100 µM | > 100 µM | > 100 µM | > 100 µM |  |  | > 100 µM |  |  |  |  |  |  |  |  |  |  |
| O=S(=O)(O)c1ccc(N=Nc2ccc(N=Nc3ccc(/C=C/c4ccc(N=[N+]([O-])c5ccc(/C=C/c6ccc(N=Nc7ccc(N=Nc8ccc(S(=O)(=O)O)cc8)cc7)cc6S(=O)(=O)O)c(S(=O)(=O)O)c5)cc4S(=O)(=O)O)c(S(=O)(=O)O)c3)cc2)cc1 | > 100 µM | > 100 µM | > 100 µM | > 100 µM | > 100 µM | > 100 µM | > 100 µM |  |  | > 100 µM |  |  |  |  |  |  |  |  |  |  |
| COc1cc2cc(C(=O)N3C[C@H](CCl)c4c3cc(N)c3ccccc43)[nH]c2c(OC)c1OC | 0.936 µM | 0.0103 µM | 0.246 µM | 0.552 µM | 1.74 µM | < 0.005 µM | > 50 µM | 0.137 µM |  | > 50 µM | 0.005 µM |  | 0.005 µM | 0.005 µM | 0.005 µM | < 0.005 µM | 0.005 µM |  |  |  |
| OCCOCn1nncc1Cn1ncc2c(SCc3ccccc3)ncnc21 | > 100 µM | > 100 µM | 34 µM | > 100 µM | > 100 µM | > 100 µM | > 100 µM | > 100 µM | > 100 µM |  |  |  |  |  |  |  |  |  |  |  |
| N#C/C(C(=O)Nc1ccc(Cl)cc1)=C(/N)N1CCCC1 | > 100 µM |  | > 100 µM | > 100 µM |  | > 100 µM | > 100 µM | > 100 µM |  | > 100 µM |  |  |  |  |  |  |  |  |  |  |
| NC(=O)c1csc(C2(O)COC(CO)C2O)n1 (centres undefined) | > 100 µM | > 100 µM |  | > 100 µM | > 100 µM | > 100 µM |  | > 100 µM | > 100 µM | > 100 µM |  |  |  |  |  |  |  |  |  |  |
| c1cncc(CC2(c3cc4ccccc4[nH]3)OCCO2)c1 |  | > 100 µM |  |  | > 100 µM | > 100 µM |  | > 100 µM | > 100 µM |  |  |  |  |  |  |  |  |  |  |  |
| O=P(O)(O)c1ccccc1Oc1ccccc1 | > 100 µM |  | > 100 µM | > 100 µM | > 100 µM | > 100 µM | > 100 µM | > 100 µM | > 100 µM | > 100 µM |  |  |  |  |  |  |  |  |  |  |
| CCOC(=O)c1s/c(=N\Nc2nc3ccccc3cc2C2OCCO2)n(Cc2ccccc2)c1C | > 100 µM | > 100 µM | > 100 µM | > 100 µM | > 100 µM |  | > 100 µM |  |  | > 100 µM |  |  |  |  |  |  |  |  |  |  |
| CC(C)C(CC(=O)OCC(CO)OC(=O)CC(C(C)C)C(C)C)C(C)C (centres undefined) | 27.2 µM | 28.4 µM | 31.5 µM | 26.1 µM | 27.6 µM | 30.9 µM | 33 µM | 28.1 µM | 21.5 µM |  |  |  |  |  |  |  |  |  |  |  |
| Cc1ccc(C(=O)N/N=C(\N=Nc2ccccc2)c2ccc(N(C)C)cc2)cc1 | > 100 µM |  | > 100 µM | > 100 µM | > 100 µM | > 100 µM | > 100 µM | > 100 µM |  | > 100 µM |  |  |  |  |  |  |  |  |  |  |
| COC(=O)C1CCc2sc3ncnc(Nc4cn[nH]c4C(=O)Nc4ccc(CN5CCN(C)CC5)cc4)c3c21 (centres undefined) | 2.04 µM | 3.78 µM | 0.991 µM |  | 2.63 µM | 31.5 µM | 4.15 µM | 3.38 µM | 12.7 µM | 4.21 µM | 0.334 µM | 0.324 µM | 1.41 µM |  | 0.666 µM | 1.82 µM | 0.254 µM | 1.06 µM | 0.54 µM | 1.98 µM |
| O=C1N=C2SC(=S)NC(=S)N2NC12c1ccccc1-c1ccccc12 |  | > 10 µM | > 10 µM |  | > 10 µM | > 10 µM | > 10 µM |  | > 10 µM | > 10 µM |  |  |  |  |  |  |  |  |  |  |
| C1=C2C3=[N+](CCCCC3)CC2Cc2ccsc21 (centres undefined) | > 100 µM | > 100 µM | > 100 µM | > 100 µM | > 100 µM |  | > 100 µM | > 100 µM | > 100 µM |  |  |  |  |  |  |  |  |  |  |  |
| CCn1c2ccc(C(=O)CCCN3CCCCC3)cc2c2cc(C(=O)CCCN3CCCCC3)ccc21 | 5.3 µM | 18.5 µM |  | 22.8 µM | 18.6 µM | 23.8 µM | > 22.6 µM | 3.3 µM | 7.06 µM | 4.7 µM |  |  |  |  |  |  |  |  |  |  |
